Test results published in US6902931B1 (priority 1998, dated 2005).

Assays:
[1] = system: NIH/3T3 murine fibroblasts; assay: Viability after vacuum drying and rehydration; assay type: cell-based; settings: H5-porated; for protection of cells subjected to vacuum drying: 0.3 M sugar; for cells that successfully attached at three hours / survival rate: 0.3M sugar; for cells that successfully attached at three hours: vacuum dried 2 hours at ambient temperature, rehydrated; for survival rate: vacuum dried, adjusted for cell loss using control samples
Procedure: The efficacy of intracellular trehalose for vacuum dried fibroblasts was also tested. NIH/3T3 murine fibroblasts, prepared as in Example 1, were resuspended in phosphate buffered saline (PBS) solution and the cell density was counted. Cell density was then adjusted to 100,000 cells/ml by diluting with PBS and the sample was divided into three equal aliquots of 4.0 ml each. To each aliquot, 1.0 ml of 25 μg/ml H5 was added, reducing cell density to 8×10^4. The aliquots were incubated at room temperature for 15 minutes with occasional mixing.
In the first two aliquots, enough 1.0M stock solution of either trehalose or sucrose in PBS was added to obtain a final sugar concentration of 0.3M. In the third aliquot, an equivalent amount of PBS, without sugar, was added.
The three aliquots were dispersed in triplicate wells at 20 μl/well into four duplicate 12-well plates. Two of the twelve well plates were incubated at 37° C. and 10% CO2 as controls. The remaining two plates were vacuum dried for 2 hours at ambient temperature. After drying, the dried samples were rehydrated and the poration reversed with serum containing DMEM.
Viability assays were performed by counting attached cells at 3 hours, and cells that remained attached and divided during the next 24 hours. The experiments were repeated three times. […] Adjusting for cell loss due to handling, poration, etc. using the control samples, survival rates of 4% for the cells dried in trehalose and 3% for the cells dried in sucrose were obtained.

3T3 fibroblasts = assay: Volumetric response of porated cells in hypertonic sugar solution (sugar uptake); assay type: cell-based, murine
Procedure: Sugar may be added to the cell suspension in an HBS solution to the final desired concentration. Porated cells may be incubated in the sugar containing solution for 45 minutes. […] Of course the length of time required for sugar uptake may vary with the type of cell and the level of cell poration. Sugar uptake may be measured by both the uptake of radiolableled sugar into porated cells as well as by the volumetric response of porated cells placed in a hypertonic sugar solution, yielding statistically correlative results.
Following poration, 0-1.0 M trehalose (final concentration) in HBS solution (Sigma) was added to the cell suspension, as indicated in FIG. 4. To allow for trehalose uptake, porated cells were incubated in the solution for 45 min. […] [Russo et al., “Reversible permeabilization of plasma membranes with an engineered switchable pore,” Nature Biotech. 15, 278-282 (1997).] This uptake was measured by both the uptake of radiolableled sugar into porated cells as well as by the volumetric response of porated cells placed in a hypertonic sugar solution, yielding statistically correlative results. By repeating the volumetric experiments using hypertonic trehalose solutions and 25 μg/ml of porating agent, volumetric equilibration over 90% over a 45 min interval was achieved, indicating the equilibration of intracellular trehalose concentration with that of the suspending solution.

in vitro = settings: mouse, pH 7.4
[2] = system: NIH/3T3 murine fibroblasts; assay: Clonogenic assay; assay type: cell-based; settings: post-thaw; H5 and 0.4 M trehalose; from approximately 200±12 plated cells, one week
Procedure: For each condition, approximately 200 of the cells that had plated in 3 hours were replated in a […] for one week. To obtain 200 fibroblasts, cells were diluted to 2×10^5 cells/ml, and 1 μl of cell solution was introduced into a P60 petri dish (Falcon) containing 12 ml of DMEM with BCS. After one week, cells were fixed by a 0.5% glutaraldehyde wash and stained by Rhodamine B (Sigma) to enhance colony visibility. The number of colonies formed was determined by visual inspection.

[3] = system: NIH/3T3 murine fibroblasts
[4] = system: NIH/3T3 murine fibroblasts; settings: mouse, pH 7.4

For `OC[C@H]1O[C@H](O[C@H]2O[C@H](CO)[C@@H](O)[C@H](O)[C@H]2O)[C@H](O)[C@@H](O)[C@@H]1O` [Trehalose, trehalose], the “protection of cells subjected to vacuum drying” value [1] was “effective in protecting cells subjected to vacuum drying”, the “cells that successfully attached at three hours” value [1] was 48±3 cells and the survival rate [1] was 4%. The “trehalose concentration at which fibroblasts reach minimum volume” value (3T3 fibroblasts; data not shown) was “about 0.4 M”, the volumetric equilibration (3T3 fibroblasts; hypertonic trehalose solutions, 25 μg/ml porating agent, 45 min interval) was “over 90%” and the viability (in vitro) was 10%. For the same compound, the colonies formed [2] was 211.6±5.2 colonies, the “additional loss of porated cells (18 hours growth)” value [3] was 10% and the “fibroblasts withstanding osmotic shock (18 hours growth)” value [3] was “over 95%”. For the same compound, the “higher than all control data to which trehalose was not added” value [3] was 70-80%, the “loss of population between 1 hour and 3h / 18 hours” value [3] was “over 60%” and the “loss of viability or function” value [3] was “did not demonstrate a significant loss of viability”. The population loss [3] was “loss of half of their populations” and the “viability and function after 1 hour” value [4] was 70-80%.
With `OC[C@H]1O[C@@](CO)(O[C@H]2O[C@H](CO)[C@@H](O)[C@H](O)[C@H]2O)[C@@H](O)[C@@H]1O` [sucrose] the “protection of cells subjected to vacuum drying” value [1] was “effective in protecting cells subjected to vacuum drying”, the “cells that successfully attached at three hours” value [1] was 36±3 cells and the survival rate [1] was 3%.
